Experimental data: article PMC6199309, “A therapeutic approach to pantothenate kinase associated neurodegeneration” (Nature Communications, 2018)

Legend:
Format in all cases: binding
[1] = target: T1, ABL1(H396P)-nonphosphorylated (Homo sapiens, UniProt P00519, H396P); assay: KINOMEscan; details: read-out: %Ctrl @ 10000nM
T1 construct: purchased DiscoverX KINOMEscan

CAMK1B = target: T2, CAMK1B (Homo sapiens, UniProt Q6P2M8); assay: KINOMEscan; details: read-out: %Ctrl @ 10000nM
T2 construct: purchased DiscoverX KINOMEscan

NIM1 = target: T3, NIM1 (Homo sapiens, UniProt Q8IY84); assay: KINOMEscan; details: read-out: %Ctrl @ 10000nM
T3 construct: purchased DiscoverX KINOMEscan

MAP4K3 = target: T4, MAP4K3 (Homo sapiens, UniProt Q8IVH8); assay: KINOMEscan; details: read-out: %Ctrl @ 10000nM
T4 construct: purchased DiscoverX KINOMEscan

PRKCI = target: T5, PRKCI (Homo sapiens, UniProt P41743); assay: KINOMEscan; details: read-out: %Ctrl @ 10000nM
T5 construct: purchased DiscoverX KINOMEscan

MLCK = target: T6, MLCK (Homo sapiens, UniProt Q32MK0); assay: KINOMEscan; details: read-out: %Ctrl @ 10000nM
T6 construct: purchased DiscoverX KINOMEscan

CSNK2A1 = target: T7, CSNK2A1 (Homo sapiens, UniProt P68400); assay: KINOMEscan; details: read-out: %Ctrl @ 10000nM
T7 construct: purchased DiscoverX KINOMEscan

YSK4 = target: T8, YSK4 (Homo sapiens, UniProt Q56UN5); assay: KINOMEscan; details: read-out: %Ctrl @ 10000nM
T8 construct: purchased DiscoverX scanMAX; host or cells: E. coli BL21-derived host (T7 phage) or HEK-293

[2] = target: T9, JAK3(JH1domain-catalytic) (Homo sapiens, UniProt P52333); assay: KINOMEscan; details: read-out: %Ctrl @ 10000nM
T9 construct: JAK3(JH1domain-catalytic); purchased DiscoverX KINOMEscan
T9 sequence (P52333 814-1124 limits assumed): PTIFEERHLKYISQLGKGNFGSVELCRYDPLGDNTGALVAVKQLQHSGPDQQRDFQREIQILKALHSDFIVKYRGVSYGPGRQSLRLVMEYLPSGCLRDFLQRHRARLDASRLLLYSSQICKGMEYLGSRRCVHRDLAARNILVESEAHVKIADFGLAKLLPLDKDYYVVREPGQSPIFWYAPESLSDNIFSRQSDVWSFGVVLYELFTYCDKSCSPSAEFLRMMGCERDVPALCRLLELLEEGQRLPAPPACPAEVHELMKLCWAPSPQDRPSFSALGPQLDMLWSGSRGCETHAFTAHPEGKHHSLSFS

LRRK2 = target: T10, LRRK2 (Homo sapiens, UniProt Q5S007); assay: KINOMEscan; details: read-out: %Ctrl @ 10000nM
T10 construct: purchased DiscoverX KINOMEscan

SRPK2 = target: T11, SRPK2 (Homo sapiens, UniProt P78362); assay: KINOMEscan; details: read-out: %Ctrl @ 10000nM
T11 construct: purchased DiscoverX KINOMEscan

PRKX = target: T12, PRKX (Homo sapiens, UniProt P51817); assay: KINOMEscan; details: read-out: %Ctrl @ 10000nM
T12 construct: purchased DiscoverX KINOMEscan
T12 sequence (P51817 whole entry): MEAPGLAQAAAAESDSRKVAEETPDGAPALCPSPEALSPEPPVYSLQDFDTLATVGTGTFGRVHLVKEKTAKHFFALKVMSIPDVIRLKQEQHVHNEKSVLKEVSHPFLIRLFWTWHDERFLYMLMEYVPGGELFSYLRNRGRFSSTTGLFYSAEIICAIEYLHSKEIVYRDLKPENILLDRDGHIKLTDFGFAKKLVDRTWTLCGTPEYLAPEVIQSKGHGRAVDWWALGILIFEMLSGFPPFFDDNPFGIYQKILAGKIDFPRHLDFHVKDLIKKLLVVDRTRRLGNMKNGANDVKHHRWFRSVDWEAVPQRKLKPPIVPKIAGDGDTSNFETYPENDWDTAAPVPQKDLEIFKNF

CSNK1E = target: T13, CSNK1E (Homo sapiens, UniProt P49674); assay: KINOMEscan; details: read-out: %Ctrl @ 10000nM
T13 construct: purchased DiscoverX KINOMEscan

[3] = target: T14, ABL1(T315I)-phosphorylated (Homo sapiens, UniProt P00519, T315I); assay: KINOMEscan; details: read-out: %Ctrl @ 10000nM
T14 construct: purchased DiscoverX KINOMEscan

LIMK2 = target: T15, LIMK2 (Homo sapiens, UniProt P53671); assay: KINOMEscan; details: read-out: %Ctrl @ 10000nM
T15 construct: purchased DiscoverX KINOMEscan

QSK = target: T16, QSK (Homo sapiens, UniProt Q9Y2K2); assay: KINOMEscan; details: read-out: %Ctrl @ 10000nM
T16 construct: purchased DiscoverX KINOMEscan

ERK4 = target: T17, ERK4 (Homo sapiens, UniProt P31152); assay: KINOMEscan; details: read-out: %Ctrl @ 10000nM
T17 construct: purchased DiscoverX KINOMEscan

BMPR1B = target: T18, BMPR1B (Homo sapiens, UniProt O00238); assay: KINOMEscan; details: read-out: %Ctrl @ 10000nM
T18 construct: purchased DiscoverX KINOMEscan

ZAP70 = target: T19, ZAP70 (Homo sapiens, UniProt P43403); assay: KINOMEscan; details: read-out: %Ctrl @ 10000nM
T19 construct: purchased DiscoverX scanMAX; host or cells: E. coli BL21-derived host (T7 phage) or HEK-293

MARK4 = target: T20, MARK4 (Homo sapiens, UniProt Q96L34); assay: KINOMEscan; details: read-out: %Ctrl @ 10000nM
T20 construct: purchased DiscoverX KINOMEscan
T20 sequence (Q96L34 whole entry): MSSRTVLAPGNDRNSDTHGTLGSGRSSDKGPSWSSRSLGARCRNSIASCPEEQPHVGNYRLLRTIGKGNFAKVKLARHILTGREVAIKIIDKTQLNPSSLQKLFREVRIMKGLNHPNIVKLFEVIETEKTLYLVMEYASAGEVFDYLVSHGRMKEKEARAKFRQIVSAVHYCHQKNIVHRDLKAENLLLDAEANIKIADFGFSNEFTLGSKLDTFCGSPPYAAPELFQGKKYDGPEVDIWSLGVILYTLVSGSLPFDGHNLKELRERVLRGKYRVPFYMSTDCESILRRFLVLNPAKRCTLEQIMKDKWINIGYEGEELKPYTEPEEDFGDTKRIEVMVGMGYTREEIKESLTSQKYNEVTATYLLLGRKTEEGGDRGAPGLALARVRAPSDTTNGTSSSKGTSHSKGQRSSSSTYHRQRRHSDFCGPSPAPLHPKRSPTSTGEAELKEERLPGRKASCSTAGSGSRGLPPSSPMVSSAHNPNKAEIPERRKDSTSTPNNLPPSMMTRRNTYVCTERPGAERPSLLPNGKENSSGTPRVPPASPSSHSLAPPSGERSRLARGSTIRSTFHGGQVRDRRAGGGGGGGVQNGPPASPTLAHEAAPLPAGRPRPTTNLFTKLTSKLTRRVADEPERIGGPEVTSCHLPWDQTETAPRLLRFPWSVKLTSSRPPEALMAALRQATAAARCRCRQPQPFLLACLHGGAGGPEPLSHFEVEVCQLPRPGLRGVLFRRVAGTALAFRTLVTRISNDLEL

CAMK1 = target: T21, CAMK1 (Homo sapiens, UniProt Q14012); assay: KINOMEscan; details: read-out: %Ctrl @ 10000nM
T21 construct: purchased DiscoverX KINOMEscan
T21 sequence (Q14012 whole entry): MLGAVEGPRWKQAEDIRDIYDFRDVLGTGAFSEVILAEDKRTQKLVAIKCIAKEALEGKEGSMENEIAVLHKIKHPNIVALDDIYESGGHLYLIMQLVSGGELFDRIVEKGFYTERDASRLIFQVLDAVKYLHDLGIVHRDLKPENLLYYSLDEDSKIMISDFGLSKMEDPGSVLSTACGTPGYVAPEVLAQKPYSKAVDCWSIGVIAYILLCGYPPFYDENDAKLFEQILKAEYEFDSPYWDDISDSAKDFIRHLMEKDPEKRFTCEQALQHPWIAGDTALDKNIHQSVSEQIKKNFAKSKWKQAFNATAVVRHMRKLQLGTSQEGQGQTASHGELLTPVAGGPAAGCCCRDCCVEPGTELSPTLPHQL

PIM3 = target: T22, PIM3 (Homo sapiens, UniProt Q86V86); assay: KINOMEscan; details: read-out: %Ctrl @ 10000nM
T22 construct: purchased DiscoverX KINOMEscan

DMPK2 = target: T23, DMPK2 (Homo sapiens, UniProt Q6DT37); assay: KINOMEscan; details: read-out: %Ctrl @ 10000nM
T23 construct: purchased DiscoverX KINOMEscan

LTK = target: T24, LTK (Homo sapiens, UniProt P29376); assay: KINOMEscan; details: read-out: %Ctrl @ 10000nM
T24 construct: purchased DiscoverX KINOMEscan
T24 sequence (P29376 17-864): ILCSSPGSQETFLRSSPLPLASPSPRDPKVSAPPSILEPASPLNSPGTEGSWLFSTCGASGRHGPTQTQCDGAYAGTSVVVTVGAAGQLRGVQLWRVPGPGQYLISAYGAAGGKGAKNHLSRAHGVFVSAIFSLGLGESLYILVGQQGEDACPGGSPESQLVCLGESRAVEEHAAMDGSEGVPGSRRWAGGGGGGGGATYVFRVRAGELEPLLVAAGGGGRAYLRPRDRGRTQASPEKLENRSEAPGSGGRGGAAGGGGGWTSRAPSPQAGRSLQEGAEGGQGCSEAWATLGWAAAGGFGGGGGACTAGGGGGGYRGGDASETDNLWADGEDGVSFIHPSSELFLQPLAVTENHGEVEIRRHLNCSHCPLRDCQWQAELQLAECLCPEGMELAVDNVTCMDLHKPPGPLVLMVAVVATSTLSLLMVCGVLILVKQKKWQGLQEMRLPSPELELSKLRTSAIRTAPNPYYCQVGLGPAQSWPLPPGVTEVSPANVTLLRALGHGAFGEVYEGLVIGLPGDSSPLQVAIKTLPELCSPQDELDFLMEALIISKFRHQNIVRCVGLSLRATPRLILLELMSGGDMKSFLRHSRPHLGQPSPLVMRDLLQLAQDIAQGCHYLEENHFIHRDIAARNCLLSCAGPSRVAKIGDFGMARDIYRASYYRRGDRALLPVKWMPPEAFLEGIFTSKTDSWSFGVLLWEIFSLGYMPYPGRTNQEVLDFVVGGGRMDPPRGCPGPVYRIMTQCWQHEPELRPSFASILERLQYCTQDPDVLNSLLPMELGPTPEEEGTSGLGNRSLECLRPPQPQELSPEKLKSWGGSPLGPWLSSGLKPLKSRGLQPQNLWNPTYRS

CDC2L1 = target: T25, CDC2L1 (Homo sapiens, UniProt P21127); assay: KINOMEscan; details: read-out: %Ctrl @ 10000nM
T25 construct: purchased DiscoverX KINOMEscan

FLT3-autoinhibited = target: T26, FLT3-autoinhibited (Homo sapiens, UniProt P36888); assay: KINOMEscan; details: read-out: %Ctrl @ 10000nM
T26 construct: purchased DiscoverX KINOMEscan
T26 sequence (P36888 564-993 limits assumed): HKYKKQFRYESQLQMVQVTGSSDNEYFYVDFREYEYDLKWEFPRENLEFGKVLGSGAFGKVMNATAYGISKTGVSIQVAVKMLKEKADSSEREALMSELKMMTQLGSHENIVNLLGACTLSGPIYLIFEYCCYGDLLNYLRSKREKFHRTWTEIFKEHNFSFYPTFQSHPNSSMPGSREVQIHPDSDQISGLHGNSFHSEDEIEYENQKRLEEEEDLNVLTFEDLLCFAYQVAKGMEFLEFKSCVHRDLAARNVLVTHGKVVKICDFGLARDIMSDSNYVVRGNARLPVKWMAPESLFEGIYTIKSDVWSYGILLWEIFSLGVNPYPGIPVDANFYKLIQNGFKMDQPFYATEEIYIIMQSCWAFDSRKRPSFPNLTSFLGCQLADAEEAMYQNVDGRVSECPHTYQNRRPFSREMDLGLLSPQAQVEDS

NLK = target: T27, NLK (Homo sapiens, UniProt Q9UBE8); assay: KINOMEscan; details: read-out: %Ctrl @ 10000nM
T27 construct: purchased DiscoverX KINOMEscan

MAPKAPK5 = target: T28, MAPKAPK5 (Homo sapiens, UniProt Q8IW41); assay: KINOMEscan; details: read-out: %Ctrl @ 10000nM
T28 construct: purchased DiscoverX KINOMEscan

SNRK = target: T29, SNRK (Homo sapiens, UniProt Q9NRH2); assay: KINOMEscan; details: read-out: %Ctrl @ 10000nM
T29 construct: purchased DiscoverX KINOMEscan

MYLK2 = target: T30, MYLK2 (Homo sapiens, UniProt Q9H1R3); assay: KINOMEscan; details: read-out: %Ctrl @ 10000nM
T30 construct: purchased DiscoverX KINOMEscan

SIK2 = target: T31, SIK2 (Homo sapiens, UniProt Q9H0K1); assay: KINOMEscan KdELECT
T31 construct: DNA tag for qPCR (T7 phage fusion or DNA label); purchased DiscoverX KdELECT; host or cells: E. coli BL21-derived (T7 phage) or HEK-293
T31 sequence (Q9H0K1 whole entry, the tested form may be a part): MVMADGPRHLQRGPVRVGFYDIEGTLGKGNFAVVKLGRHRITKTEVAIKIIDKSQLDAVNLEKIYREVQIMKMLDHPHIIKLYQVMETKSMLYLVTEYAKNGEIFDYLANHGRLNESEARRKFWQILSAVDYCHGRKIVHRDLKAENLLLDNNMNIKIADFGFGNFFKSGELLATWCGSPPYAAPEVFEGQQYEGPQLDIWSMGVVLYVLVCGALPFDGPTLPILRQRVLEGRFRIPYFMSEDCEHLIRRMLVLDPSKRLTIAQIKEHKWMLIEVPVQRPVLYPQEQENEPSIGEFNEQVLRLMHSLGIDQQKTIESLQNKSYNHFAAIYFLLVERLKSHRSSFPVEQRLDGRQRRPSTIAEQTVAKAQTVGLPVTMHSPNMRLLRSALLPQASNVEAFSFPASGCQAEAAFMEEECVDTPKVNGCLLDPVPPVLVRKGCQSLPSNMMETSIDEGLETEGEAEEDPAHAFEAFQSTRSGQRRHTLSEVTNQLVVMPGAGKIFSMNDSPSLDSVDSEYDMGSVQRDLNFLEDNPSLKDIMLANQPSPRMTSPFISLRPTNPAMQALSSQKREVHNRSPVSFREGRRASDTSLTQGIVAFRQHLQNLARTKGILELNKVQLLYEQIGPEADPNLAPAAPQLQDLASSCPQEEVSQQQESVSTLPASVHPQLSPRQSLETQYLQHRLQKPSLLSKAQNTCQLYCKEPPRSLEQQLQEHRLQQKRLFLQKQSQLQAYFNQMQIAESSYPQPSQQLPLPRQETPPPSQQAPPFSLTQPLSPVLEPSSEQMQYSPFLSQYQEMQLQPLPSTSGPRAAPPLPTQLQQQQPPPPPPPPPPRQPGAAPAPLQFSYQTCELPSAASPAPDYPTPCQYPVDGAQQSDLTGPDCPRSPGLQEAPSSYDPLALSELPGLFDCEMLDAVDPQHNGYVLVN

BMPR2 = target: T32, BMPR2 (Homo sapiens, UniProt Q13873); assay: KINOMEscan; details: read-out: %Ctrl @ 10000nM
T32 construct: purchased DiscoverX KINOMEscan

YSK1 = target: T33, YSK1 (Homo sapiens, UniProt O00506); assay: KINOMEscan; details: read-out: %Ctrl @ 10000nM
T33 construct: purchased DiscoverX scanMAX; host or cells: E. coli BL21-derived host (T7 phage) or HEK-293
T33 sequence (O00506 whole entry): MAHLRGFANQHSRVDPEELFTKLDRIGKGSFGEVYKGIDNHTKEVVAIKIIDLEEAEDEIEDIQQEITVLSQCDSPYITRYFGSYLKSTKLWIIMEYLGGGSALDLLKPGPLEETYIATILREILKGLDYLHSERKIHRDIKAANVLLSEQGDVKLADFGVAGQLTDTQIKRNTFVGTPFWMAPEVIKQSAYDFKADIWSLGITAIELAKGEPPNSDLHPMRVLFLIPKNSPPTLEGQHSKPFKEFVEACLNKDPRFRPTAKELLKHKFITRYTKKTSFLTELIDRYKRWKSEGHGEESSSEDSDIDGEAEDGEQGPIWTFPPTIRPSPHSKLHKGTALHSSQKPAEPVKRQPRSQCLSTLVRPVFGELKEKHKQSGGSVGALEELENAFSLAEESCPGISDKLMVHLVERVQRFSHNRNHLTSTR

SMILES: CC(C)c1ccc(CC(=O)N2CCN(c3ccc(C#N)nn3)CC2)cc1 [PZ-2891, 6-(4-(2-(4-isopropylphenyl)acetyl)piperazin-1-yl)pyridazine-3-carbonitrile]
- remaining binding at 10 µM [1]: 74%
- remaining binding at 10 µM (CAMK1B): 100%
- remaining binding at 10 µM (NIM1): 83%
- remaining binding at 10 µM (MAP4K3): 94%
- remaining binding at 10 µM (PRKCI): 83%
- remaining binding at 10 µM (MLCK): 100%
- remaining binding at 10 µM (CSNK2A1): 82%
- remaining binding at 10 µM (YSK4): 89%
- remaining binding at 10 µM [2]: 94%
- remaining binding at 10 µM (LRRK2): 100%
- remaining binding at 10 µM (SRPK2): 97%
- remaining binding at 10 µM (PRKX): 70%
- remaining binding at 10 µM (CSNK1E): 97%
- remaining binding at 10 µM [3]: 97%
- remaining binding at 10 µM (LIMK2): 95%
- remaining binding at 10 µM (QSK): 82%
- remaining binding at 10 µM (ERK4): 97%
- remaining binding at 10 µM (BMPR1B): 60%
- remaining binding at 10 µM (ZAP70): 96%
- remaining binding at 10 µM (MARK4): 81%
- remaining binding at 10 µM (CAMK1): 93%
- remaining binding at 10 µM (PIM3): 58%
- remaining binding at 10 µM (DMPK2): 93%
- remaining binding at 10 µM (LTK): 75%
- remaining binding at 10 µM (CDC2L1): 95%
- remaining binding at 10 µM (FLT3-autoinhibited): 82%
- remaining binding at 10 µM (NLK): 94%
- remaining binding at 10 µM (MAPKAPK5): 74%
- remaining binding at 10 µM (SNRK): 85%
- remaining binding at 10 µM (MYLK2): 98%
- Kd (SIK2; SIK2): > 30 µM
- Kd (SIK2; SIK2 Replicate ID = 1): > 30 µM
- Kd (SIK2; SIK2 Replicate ID = 2): > 30 µM
- remaining binding at 10 µM (BMPR2): 87%
- remaining binding at 10 µM (YSK1): 100%
